# Tested on: rabbit skeletal myofibrils (approximately 90% fast fibers)
# Assay: Activation of fast skeletal myofibrils (PUMA coupled-enzyme ATPase assay)
# Type: biochemical
# Details: AC1.4 = concentration at which the compound increased the enzymatic activity by 40%; myofibril suspension at calcium level pCa25; PM12 buffer pH 6.8
# Procedure: Preparation of fast skeletal myofibrils. Rabbit skeletal myofibrils were prepared based upon the method of Herrmann et al. (Biochem. 32(28):7255-7263(1993). Myofibrils were prepared from rabbit psoas muscle purchased from Pel-Freez Biologicals (Arkansas) within 2 days of ordering, stored on ice. Minced muscle was homogenized in 10 volumes of ice-cold “standard” buffer (50 mM Tris, pH 7.4, 0.1 M potassium acetate, 5 mM KCl, 2 mM DTT, 0.2 mM PMSF, 10 μM leupeptin, 5 μM pepstatin, and 0.5 mM sodium azide) containing 5 mM EDTA and 0.5% Triton X-100 using an Omni-Macro homogenizer. Myofibrils were recovered by low speed centrifugation (3000 rpm for 10 minutes) and washed 2 times in the Triton X-100 containing buffer to ensure removal of cellular membrane. Following the Triton washes, myofibrils were washed 3 times in “standard” buffer containing 2 mM magnesium acetate. A final wash in assay buffer (12 mM PIPES, pH 6.8, 60 mM KCl, 1 mM DTT) was performed and brought to 10% sucrose for flash freezing in liquid nitrogen and storage at −80° C.
# Activation of Fast Skeletal Myofibrils. Fast fiber activators were identified by measuring the enzymatic activity of muscle myofibril preparations using the proprietary PUMA™ (see, e.g., U.S. Pat. Nos. 6,410,254, 6,743,599, 7,202,051, and 7,378,254) assay system. Myofibril preparations consisted of rabbit skeletal muscle (approximately 90% fast fibers) that had been mechanically homogenized and washed with a detergent (triton X-100) to remove cellular membranes. This preparation retained all of the sarcomeric components in a native conformation and the enzymatic activity was still regulated by calcium. Compounds were tested using a myofibril suspension and a level of calcium sufficient to increase enzymatic activity of the myofibrils to 25% of their maximal rate (termed pCa25). Enzymatic activity was tracked via a pyruvate kinase and lactate dehydrogenase-coupled enzyme system. This assay regenerates myosin-produced ADP into ATP by oxidizing NADH, producing an absorbance change at 340 nm. The buffering system was 12 mM Pipes, 2 mM MgCl2, 1 mM DTT at pH 6.8 (PM12 buffer).
# Using procedures similar to those described herein, utilizing reagents and intermediates commercially available (e.g., Sigma-Aldrich,) or readily synthesized by one of skill in the art, the compounds in Table 2 were synthesized, characterized and tested. AC1.4 values were determined according to the procedure described in Example 25, and the reported median AC1.4 values are as follows: A=<1 uM; B=1-10 uM; C=10-20 uM; D=>20 uM.
row,Compound,Mean AC1.4
1,"CC(C)(Nc1ncc(-n2cc(C(N)=O)cn2)nn1)c1ncccc1Cl [1-(3-{[1-(3-chloro(2-pyridyl))-isopropyl]amino}-1,2,4-triazin-6-yl)pyrazole-4-carboxamide]",D (D=>20 uM)
2,"CC(C)(Nc1ncc(-n2cc(C(N)=O)cn2)nn1)c1ncccc1F [1-(3-{[1-(3-fluoro(2-pyridyl))-isopropyl]amino}-1,2,4-triazin-6-yl)pyrazole-4-carboxamide]",D (D=>20 uM)
3,"CC(C)(CNc1ncc(-n2cc(C(N)=O)cn2)nn1)c1ccc(F)cc1 [1-(3-{[2-(4-fluorophenyl)-2-methylpropyl]amino}-1,2,4-triazin-6-yl)pyrazole-4-carboxamide]",B (B=1-10 uM)
4,"NC(=O)c1cnn(-c2cnc(NC3(c4ncccc4F)CCC3)nn2)c1 [1-(3-{[(3-fluoro-2-pyridyl)cyclobutyl]amino}-1,2,4-triazin-6-yl)pyrazole-4-carboxamide]",D (D=>20 uM)
5,"CC(C)(CNc1ccc(C(O)CO)cn1)c1ccc(F)cc1 (centres unmarked) [1-(6-{[2-(4-fluorophenyl)-2-methylpropyl]amino}-3-pyridyl)ethane-1,2-diol]",D (D=>20 uM)
6,"CC(C)(Nc1ncc(-n2cc(C(N)=O)cn2)nn1)c1cccc(OC(F)F)n1 [1-[3-({1-[6-(difluoromethoxy)(2-pyridyl)]-isopropyl}amino)-1,2,4-triazin-6-yl]pyrazole-4-carboxamide]",B (B=1-10 uM)
7,"NC(=O)c1cnn(-c2cnc(NCC3(c4ncccc4F)CCC3)nn2)c1 [1-[3-({[(3-fluoro-2-pyridyl)cyclobutyl]methyl}amino)-1,2,4-triazin-6-yl]pyrazole-4-carboxamide]",B (B=1-10 uM)
8,"CC(C)(Nc1ncc(-c2ncc(CC(N)=O)s2)nn1)c1ncccc1F [2-[2-(3-{[1-(3-fluoro(2-pyridyl))-isopropyl]amino}-1,2,4-triazin-6-yl)-1,3-thiazol-5-yl]acetamide]",D (D=>20 uM)
9,"CC(C)(Nc1ncc(-c2cccc(CC(N)=O)c2)nn1)c1ncccc1F [2-[3-(3-{[1-(3-fluoro(2-pyridyl))-isopropyl]amino}-1,2,4-triazin-6-yl)phenyl]acetamide]",D (D=>20 uM)
10,"CC(C)(Nc1ncc(-c2ncc(C(N)=O)s2)nn1)c1cccc(OC(F)F)n1 [2-[3-({1-[6-(difluoromethoxy)(2-pyridyl)]-isopropyl}amino)-1,2,4-triazin-6-yl]-1,3-thiazole-5-carboxamide]",B (B=1-10 uM)
11,"CC(C)(Nc1ncc(-c2cc(CNC(=O)CN)ccc2F)nn1)c1ncccc1F [2-amino-N-{[4-fluoro-3-(3-{[1-(3-fluoro(2-pyridyl))-isopropyl]amino}(1,2,4-triazin-6-yl))phenyl]methyl}acetamide]",B (B=1-10 uM)
12,"CC(C)(Nc1ncc(-c2ccc(F)c(C(N)=O)c2)nn1)c1ncccc1F [2-fluoro-5-(3-{[1-(3-fluoro(2-pyridyl))-isopropyl]amino}(1,2,4-triazin-6-yl))benzamide]",D (D=>20 uM)
13,"CC(C)(Nc1ncc(-c2ccc(F)c(C(=O)O)c2)nn1)c1ncccc1F [2-fluoro-5-(3-{[1-(3-fluoro(2-pyridyl))-isopropyl]amino}(1,2,4-triazin-6-yl))benzoic acid]",D (D=>20 uM)
14,"N#Cc1cc(-c2cnc(NCC3(c4ncccc4F)CCC3)nn2)ccc1F [2-fluoro-5-[3-({[(3-fluoro(2-pyridyl))cyclobutyl]methyl}amino)(1,2,4-triazin-6-yl)]benzenecarbonitrile]",C (C=10-20 uM)
15,"NC(=O)Cc1cnc(-c2cnc(NCC3(c4ncccc4F)CCC3)nn2)s1 [2-{2-[3-({[(3-fluoro-2-pyridyl)cyclobutyl]methyl}amino)-1,2,4-triazin-6-yl]-1,3-thiazol-5-yl}acetamide]",C (C=10-20 uM)
16,CC(C)(CNc1ccc2cc(C(N)=O)ccc2n1)c1ccc(F)cc1 [2-{[2-(4-fluorophenyl)-2-methylpropyl]amino}quinoline-6-carboxamide],B (B=1-10 uM)
17,"CC(C)(Nc1ncc(-c2cc(C(N)=O)ccc2F)nn1)c1ncccc1Cl [3-(3-{[1-(3-chloro(2-pyridyl))-isopropyl]amino}(1,2,4-triazin-6-yl))-4-fluorobenzamide]",B (B=1-10 uM)
18,"CC(C)(Nc1ncc(-c2cccc(C(N)=O)c2)nn1)c1ncccc1Cl [3-(3-{[1-(3-chloro(2-pyridyl))-isopropyl]amino}-1,2,4-triazin-6-yl)benzamide]",B (B=1-10 uM)
19,"CC(C)(Nc1ncc(-c2cccc(C(N)=O)c2)nn1)c1ncccc1F [3-(3-{[1-(3-fluoro(2-pyridyl))-isopropyl]amino}-1,2,4-triazin-6-yl)benzamide]",B (B=1-10 uM)
20,"CC(C)(CNc1ncc(-c2cc(C(N)=O)ccc2F)nn1)c1ncccc1Cl [3-(3-{[2-(3-chloro(2-pyridyl))-2-methylpropyl]amino}(1,2,4-triazin-6-yl))-4-fluorobenzamide]",B (B=1-10 uM)
21,"CC(C)(CNc1ncc(-c2cc(C(=O)O)ccc2F)nn1)c1ncccc1Cl [3-(3-{[2-(3-chloro(2-pyridyl))-2-methylpropyl]amino}(1,2,4-triazin-6-yl))-4-fluorobenzoic acid]",B (B=1-10 uM)
22,"CC(C)(CNc1ncc(-c2cccc(C(N)=O)c2)nn1)c1ccc(F)cc1 [3-(3-{[2-(4-fluorophenyl)-2-methylpropyl]amino}-1,2,4-triazin-6-yl)benzamide]",B (B=1-10 uM)
23,"NC(=O)c1cccc(-c2cnc(NCC3(c4ccccn4)CCC3)nn2)c1 [3-(3-{[(2-pyridylcyclobutyl)methyl]amino}-1,2,4-triazin-6-yl)benzamide]",B (B=1-10 uM)

# Next, values leading:
row,Mean AC1.4,Compound
1,C (C=10-20 uM),"2-{2-[3-({[3-fluoro-1-(3-fluoro(2- pyridyl))cyclobutyl]methyl}amino)-1,2,4- triazin-6-yl]-1,3-thiazoI-5-yl}acetamide"
2,B (B=1-10 uM),"N#Cc1cccc(-c2cnc(NCC3(c4ccccn4)CCC3)nn2)c1 [3-(3-{[(2-pyridylcyclobutyl)methyl]amino}-1,2,4-triazin-6-yl)benzenecarbonitrile]"
3,B (B=1-10 uM),"CC(C)(CNc1cnc(-c2cccc(C(N)=O)c2)nn1)c1ccc(F)cc1 [3-(6-{[2-(4-fluorophenyl)-2-methylpropyl]amino}-1,2,4-triazin-3-yl)benzamide]"
4,A (A=<1 uM),CC(C)(CNc1ccc(-c2cccc(C(N)=O)c2)cn1)c1ccc(F)cc1 [3-(6-{[2-(4-fluorophenyl)-2-methylpropyl]amino}-3-pyridyl)benzamide]
5,D (D=>20 uM),"CC(C)(CNc1ccc(CC(O)CO)cn1)c1ccc(F)cc1 (centres unmarked) [3-(6-{[2-(4-fluorophenyl)-2-methylpropyl]amino}-3-pyridyl)propane-1,2-diol]"
6,D (D=>20 uM),NC(=O)c1cccc(-c2ccc(NCCc3ccc(F)cc3)nc2)c1 [3-(6-{[2-(4-fluorophenyl)ethyl]amino}-3-pyridyl)benzamide]
7,B (B=1-10 uM),C[C@@H](CNc1ccc(-c2cccc(C(N)=O)c2)cn1)c1ccc(F)cc1 [3-(6-{[(2R)-2-(4-fluorophenyl)propyl]amino}-3-pyridyl)benzamide]
8,B (B=1-10 uM),C[C@H](CNc1ccc(-c2cccc(C(N)=O)c2)cn1)c1ccc(F)cc1 [3-(6-{[(2S)-2-(4-fluorophenyl)propyl]amino}-3-pyridyl)benzamide]
9,C (C=10-20 uM),"CC(C)(Nc1ncc(-c2cc(C(N)=O)ccc2F)nn1)c1ncccc1C(F)F [3-[3-({1-[3-(difluoromethyl)(2-pyridyl)]-isopropyl}amino)(1,2,4-triazin-6-yl)]-4-fluorobenzamide]"
10,D (D=>20 uM),"CC(C)(Nc1ncc(-c2cc(C#N)ccc2F)nn1)c1ncccc1C(F)F [3-[3-({1-[3-(difluoromethyl)(2-pyridyl)]-isopropyl}amino)(1,2,4-triazin-6-yl)]-4-fluorobenzenecarbonitrile]"
11,A (A=<1 uM),"CC(C)(Nc1ncc(-c2cc(C(N)=O)ccc2F)nn1)c1cccc(OC(F)F)n1 [3-[3-({1-[6-(difluoromethoxy)(2-pyridyl)]-isopropyl}amino)(1,2,4-triazin-6-yl)]-4-fluorobenzamide]"
12,B (B=1-10 uM),"CC(C)(Nc1ncc(-c2cc(C(N)=O)ccc2F)nn1)c1cccc(C(F)F)n1 [3-[3-({1-[6-(difluoromethyl)(2-pyridyl)]-isopropyl}amino)(1,2,4-triazin-6-yl)]-4-fluorobenzamide]"
